Assay results taken from US12458538B2, “Functional wound healing dressings” (Ambient Biosciences, Inc., priority 2018, dated 2025).
Entries after “also recorded” stand apart in the source; their conditions may differ.

Assays:
[1] = test system: C57/BL6J mouse keratinocytes; assay: Transwell migration assay; type: cell-based
Protocol: (§1) Two established cell culture models of transwell migration and a scratch wound healing model with freshly isolated C57/BL6J mouse keratinocytes were used. First, the keratinocyte cultures were established by enzymatic separation of keratinocytes from the epidermal layer of mouse skin using a dispase (for isolating epidermal later of skin) and trypsin (for isolating keratinocytes from the epidermis) under gentle agitation. The collected cells were grown in SFM-keratinocyte medium (Life Technologies).
To assess the ability of keratinocytes to migrate under the influence of VEGF, cells were trypsinized, collected by centrifugation and added to the upper chamber of transwell inserts while the No VEGF control or VEGF or VEGF+VEGF inhibitor were added to serum free medium placed in the lower chamber. The cells were allowed to migrate under normal growth conditions. At the end of 24 h, the cells that migrated under the influence of vehicle control or VEGF in lower chamber were counted visually and expressed as percent cell migration.

[2] = test system: C57/BL6J mouse keratinocytes; assay: Scratch wound healing assay; type: cell-based
Protocol: as §1
To assess the ability of keratinocytes to migrate and heal wound gaps, scratch wounds of uniform dimensions were created across keratinocyte monolayers and the cultures were left for healing in the presence or absence of VEGF or VEGF inhibitor.

[3] = test system: TNFα, COL1A1, DSTN, TGFβ, IL-6 and COL3A1 expression in dermal fibroblasts; assay: LPS-induced scar-forming gene expression assay of dermal fibroblasts (qPCR); type: cell-based; settings: LPS 500 ng/ml 3 days; VEGF 10 ng/ml; + control ideal storage, others exposed at 55° C. for 15 days
Protocol: Dermal fibroblasts were treated with lipopolysaccharide LPS (500 ng/ml) or vehicle PBS (No LPS control) for 3 days in the presence of vitrified VEGF (10 ng/ml) that was tested for stability against exposure to 55° C. from days 1-15.
LPS-treated cells exposed to VEGF (10 ng/ml) that underwent thermo-destabilization in the absence of vitrification served as negative control and the cells treated with VEGF that was subjected to neither vitrification nor destabilization served as positive control.
LPS-induced scar-forming gene expression profiles of dermal fibroblasts namely TNFα, COL1A1, DSTN, TGFβ, IL-6 and COL3A1 were measured by quantitative real-time PCR (qPCR), normalized to the expression of β-actin and expressed relative to the levels measured in No LPS control.

[4] = Activity of vitrified insulin after reconstitution; settings: reconstitution by contact with water or a body fluid

With “vascular endothelial growth factor [VEGF]” the “migration of keratinocytes, transwell” value ([1]; 24 h, serum free medium in lower chamber) was “stimulates migration of keratinocytes”, the “quantification of cell numbers in the transwell migration assay” value ([1]; n=3) was “dramatic induction of keratinocyte migration” and the “number of cells that migrated into the scratch wound area” value ([2]; n=3) was “dramatic induction of keratinocyte migration”. The “keratinocyte scratch wound healing” value ([2]; scratch wounds on confluent keratinocyte monolayers) was “promote a dynamic healing in the scratch wound area; also recorded: stimulates migration of keratinocytes” and the “LPS-induced scar-forming gene expression” value [3] was “strong suppressive effect on scar forming genes”.
For “vitrified insulin: insulin vitrified by the processes described, e.g. electrospun with pullulan and trehalose”, the activity after reconstitution [4] was “indistinguishable from fresh insulin”.
